Laboratory results published in PubChem BioAssay AID212 (DTP/NCI, 2004).
Several values for one entry are separate records, joined by “and”; a condition that tells them apart may be missing. Identical values can stand only once. Records with an inconclusive call do not appear. *1 amine or outer side, *2 acyl side, *3 side chain or, on linkers, in order; H or OH if unused. Where a SMILES comes first, the peptide text is derived from it. [ ]: non-standard residue; d: D form. The star is where a group is joined. X2 = CCC(=O)CC1CC(C)CC(C(=O)[*:2])N1[*:1]; X1 = CCCCCCCCC(C)C(=O)*; Aib = CC(C)(N)C(=O)O; X3 = CC(CN(C)CCO)N*

Test system: BDF1 mice, colon carcinoma 38 sc, T/C %
Assay: NCI In Vivo Anticancer Drug Screen. Data for tumor model Colon Carcinoma 38 (subcutaneous) in B6D2F1 (BDF1) mice
Details: endpoint: median tumor weight (est.), higher = larger tumour
How it was run: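 Compound antitumor activity was assessed in mice carrying transplantable tumors. Survival or tumor size was recorded, and each value is the treated-group measurement divided by that of the vehicle-treated control group.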

[1] = dose: 12.5 mg/kg/injection, schedule: Q07DX002 (ip), vehicle: saline
[2] = dose: 50.0 mg/kg/injection, schedule: Q07DX002 (ip), vehicle: saline
[3] = dose: 100.0 mg/kg/injection, schedule: Q07DX002 (ip), vehicle: saline
[4] = dose: 25.0 mg/kg/injection, schedule: Q07DX002 (ip), vehicle: saline with Tween-80
[5] = dose: 100.0 mg/kg/injection, schedule: Q07DX002 (ip), vehicle: saline with Tween-80
[6] = dose: 25.0 mg/kg/injection, schedule: Q07DX002 (ip), vehicle: Klucel (hydroxypropylcellulose) (HPC)
[7] = dose: 100.0 mg/kg/injection, schedule: Q07DX002 (ip), vehicle: Klucel (hydroxypropylcellulose) (HPC)
[8] = dose: 200.0 mg/kg/injection, schedule: Q07DX002 (ip), vehicle: Klucel (hydroxypropylcellulose) (HPC)
[9] = dose: 400.0 mg/kg/injection, schedule: Q07DX002 (ip), vehicle: Klucel (hydroxypropylcellulose) (HPC)

`Nc1ncnc2c1ncn2C1OC(CO)C(O)C1O` (stereo unspecified) was tested, and the T/C [1] was 103 % of control, the T/C (dose: 25.0 mg/kg/injection, schedule: Q07DX002 (ip), vehicle: saline) was 115 % of control and the T/C (dose: 25.0 mg/kg/injection, schedule: Q07DX003 (ip), vehicle: saline) was 233 % of control. The T/C [2] was 85 % of control, the T/C (dose: 50.0 mg/kg/injection, schedule: Q07DX003 (ip), vehicle: saline) was 238 % of control and the T/C (dose: 75.0 mg/kg/injection, schedule: Q07DX002 (ip), vehicle: saline) was 80 % of control. For the same compound, the T/C [3] was 110 % of control, the T/C (dose: 150.0 mg/kg/injection, schedule: Q07DX002 (ip), vehicle: saline) was 97 % of control and the T/C (dose: 300.0 mg/kg/injection, schedule: Q07DX002 (ip), vehicle: saline) was 105 % of control. The T/C (dose: 600.0 mg/kg/injection, schedule: Q07DX002 (ip), vehicle: saline) was 116 % of control.
`Nc1n[nH]c(N)n1` was tested, and the T/C [3] was 84 % of control and 90 % of control and 105 % of control, the T/C (dose: 100.0 mg/kg/injection, schedule: Q07DX003 (ip), vehicle: saline with Tween-80) was 56 % of control and the T/C (dose: 400.0 mg/kg/injection, schedule: Q07DX002 (ip), vehicle: saline) was 65 % of control and 69 % of control and 71 % of control. For the same compound, the T/C (dose: 400.0 mg/kg/injection, schedule: Q07DX003 (ip), vehicle: saline with Tween-80) was 110 % of control, the T/C (dose: 800.0 mg/kg/injection, schedule: Q07DX003 (ip), vehicle: saline with Tween-80) was 102 % of control and the T/C (dose: 1600.0 mg/kg/injection, schedule: Q07DX002 (ip), vehicle: saline) was 71 % of control and 73 % of control and 81 % of control.
`CCC1CN2C(=N1)c1ccccc1-c1cc(Cl)ccc12` (stereo unspecified) was tested, and the T/C (dose: 3.13 mg/kg/injection, schedule: Q07DX003 (ip), vehicle: suspension in saline) was 83 % of control, the T/C (dose: 6.25 mg/kg/injection, schedule: Q07DX003 (ip), vehicle: suspension in saline) was 93 % of control and the T/C (dose: 12.5 mg/kg/injection, schedule: Q07DX003 (ip), vehicle: suspension in saline) was 118 % of control.
In the case of `CCCN1COC(OCC)C(C)(C)C1` (stereo unspecified), the T/C [4] is reported as 73 % of control, the T/C [5] is reported as 68 % of control and 73 % of control and the T/C (dose: 200.0 mg/kg/injection, schedule: Q07DX002 (ip), vehicle: saline with Tween-80) is reported as 77 % of control.
In the case of `CN(C)/N=N/c1nc[nH]c1C(N)=O`, the T/C (dose: 12.5 mg/kg/injection, schedule: Q07DX002 (ip), vehicle: Klucel (hydroxypropylcellulose) (HPC)) is reported as 28 % of control, the T/C [6] is reported as 64 % of control and the T/C (dose: 25.0 mg/kg/injection, schedule: Q07DX003 (ip), vehicle: Klucel (hydroxypropylcellulose) (HPC)) is reported as 75 % of control. For the same compound, the T/C (dose: 25.0 mg/kg/injection, schedule: Q07DX003 (ip), vehicle: carboxymethylcellulose (CMC)) was 37 % of control, the T/C (dose: 50.0 mg/kg/injection, schedule: Q07DX002 (ip), vehicle: Klucel (hydroxypropylcellulose) (HPC)) was 40 % of control and the T/C (dose: 50.0 mg/kg/injection, schedule: Q07DX003 (ip), vehicle: Klucel (hydroxypropylcellulose) (HPC)) was 43 % of control. For the same compound, the T/C (dose: 50.0 mg/kg/injection, schedule: Q07DX003 (ip), vehicle: carboxymethylcellulose (CMC)) was 28 % of control, the T/C [7] was 74 % of control and 75 % of control and the T/C (dose: 100.0 mg/kg/injection, schedule: Q07DX003 (ip), vehicle: Klucel (hydroxypropylcellulose) (HPC)) was 85 % of control. The T/C (dose: 100.0 mg/kg/injection, schedule: Q07DX003 (ip), vehicle: carboxymethylcellulose (CMC)) was 16 % of control, the T/C [8] was 12 % of control and 28 % of control and the T/C (dose: 200.0 mg/kg/injection, schedule: Q07DX003 (ip), vehicle: Klucel (hydroxypropylcellulose) (HPC)) was 9 % of control. For the same compound, the T/C (dose: 200.0 mg/kg/injection, schedule: Q07DX003 (ip), vehicle: carboxymethylcellulose (CMC)) was 16 % of control, the T/C [9] was 13 % of control and 33 % of control and the T/C (dose: 400.0 mg/kg/injection, schedule: Q07DX003 (ip), vehicle: Klucel (hydroxypropylcellulose) (HPC)) was 44 % of control.
With `CO[C@@]12[C@@H]3N[C@@H]3CN1C1=C(C(=O)C(NCC3CCCO3)=C(C)C1=O)[C@@H]2COC(N)=O` (stereo partly specified) the T/C (dose: 3.0 mg/kg/injection, schedule: Q07DX002 (ip), vehicle: distilled water + Tween-80) was 93 % of control, the T/C (dose: 6.0 mg/kg/injection, schedule: Q07DX002 (ip), vehicle: distilled water + Tween-80) was 69 % of control and the T/C (dose: 12.0 mg/kg/injection, schedule: Q07DX002 (ip), vehicle: distilled water + Tween-80) was 34 % of control. For the same compound, the T/C (dose: 24.0 mg/kg/injection, schedule: Q07DX002 (ip), vehicle: distilled water + Tween-80) was 28 % of control.
For `Cc1ccc(S(=O)(=O)N/N=C/C(Br)=C(/Br)C(=O)O)cc1`, the T/C [6] was 94 % of control, the T/C [7] was 124 % of control and 100 % of control and the T/C [8] was 88 % of control. For the same compound, the T/C [9] was 72 % of control.
For `O=NNc1ccccn1`, the T/C (dose: 1.56 mg/kg/injection, schedule: Q07DX002 (ip), vehicle: saline) was 98 % of control, the T/C (dose: 3.12 mg/kg/injection, schedule: Q07DX002 (ip), vehicle: saline) was 85 % of control and 96 % of control and the T/C (dose: 6.25 mg/kg/injection, schedule: Q07DX002 (ip), vehicle: saline) was 110 % of control. For the same compound, the T/C [1] was 120 % of control and 106 % of control and the T/C [2] was 95 % of control.
For `C=C/C(C)=C/[C@H](C)C(=O)C[C@H](O)CC1CC(=O)NC(=O)C1`, the T/C (dose: 12.5 mg/kg/injection, schedule: Q07DX002 (ip), vehicle: saline with Tween-80) was 111 % of control, the T/C [4] was 102 % of control and the T/C (dose: 50.0 mg/kg/injection, schedule: Q07DX002 (ip), vehicle: saline with Tween-80) was 89 % of control. The T/C [5] was 102 % of control.
In the case of `CCC(=O)N(C)[C@@H](C)C(=O)O[C@H]1CC(=O)N(C)c2cc(cc(OC)c2Cl)C/C(C)=C/C=C[C@@H](OC)[C@@]2(O)C[C@H](OC(=O)N2)[C@@H](C)[C@@H]2O[C@@]12C`, the T/C (dose: 7.5 micrograms/kg/injection, schedule: Q07DX002 (ip), vehicle: saline + alcohol) is reported as 62 % of control, the T/C (dose: 30.0 micrograms/kg/injection, schedule: Q07DX002 (ip), vehicle: saline + alcohol) is reported as 84 % of control and the T/C (dose: 120.0 micrograms/kg/injection, schedule: Q07DX002 (ip), vehicle: saline + alcohol) is reported as 108 % of control.
With `CC(=O)O[C@@H]1[C@@H](O)C2=C3[C@]4(C)[C@@H]1C(C)(C)C(=O)C[C@@H]4[C@]3(O)[C@H](OC(C)=O)[C@@]1(C[C@@H]1C)C2=O` the T/C (dose: 3.12 mg/kg/injection, schedule: Q07DX003 (ip), vehicle: saline with Tween-80) was 97 % of control, the T/C (dose: 6.25 mg/kg/injection, schedule: Q07DX003 (ip), vehicle: saline with Tween-80) was 93 % of control and the T/C (dose: 25.0 mg/kg/injection, schedule: Q07DX003 (ip), vehicle: saline with Tween-80) was 86 % of control. The T/C (dose: 50.0 mg/kg/injection, schedule: Q07DX003 (ip), vehicle: saline with Tween-80) was 64 % of control.
In the case of `CCCCCCCCC(C)C(=O)N1CCCC1C(=O)N1C(CC(=O)CC)CC(C)CC1C(=O)NC(C)C(=O)NC(C)(C)C(=O)NC(C)(C)C(=O)NC(C(=O)NC(C)C(=O)NC(C)(C)C(=O)NC(C)(C)C(=O)NC(C)CN(C)CCO)C(C)CC` (stereo unspecified) (X1-P[X2]A[Aib][Aib]IA[Aib][Aib]-X3; configuration not given here), the T/C (dose: 0.31 mg/kg/injection, schedule: Q07DX002 (ip), vehicle: Klucel (hydroxypropylcellulose) (HPC)) is reported as 123 % of control, the T/C (dose: 1.25 mg/kg/injection, schedule: Q07DX002 (ip), vehicle: Klucel (hydroxypropylcellulose) (HPC)) is reported as 86 % of control and 91 % of control and the T/C (dose: 2.5 mg/kg/injection, schedule: Q07DX002 (ip), vehicle: Klucel (hydroxypropylcellulose) (HPC)) is reported as 119 % of control. The T/C (dose: 5.0 mg/kg/injection, schedule: Q07DX002 (ip), vehicle: Klucel (hydroxypropylcellulose) (HPC)) was 103 % of control and 104 % of control and the T/C (dose: 10.0 mg/kg/injection, schedule: Q07DX002 (ip), vehicle: Klucel (hydroxypropylcellulose) (HPC)) was 102 % of control.
